Measured values: patent US20120245161A1 (SANOFI, priority 2009, published 2012)
Counter-ions that a name gives are not always drawn.

Target: T1, recombinant human beta tryptase (Homo sapiens, UniProt P20231)
T1 construct: made in house; host or cells: yeast cells
Experiment: beta-Tryptase inhibition, chromogenic enzyme assay (substrate S2366, read at 405 nm)
Type: biochemical
Conditions: Ki calculated from IC50: Ki=IC50/(1+[Substrate]/Km); 0.5 mM substrate, room temperature; read-out: Tryptase Ki
Outline: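 Recombinant human beta tryptase (yeast-expressed; native lung enzyme also used), 50 ng/mL final, with 0.5 mM (2×Km) chromogenic substrate S2366; 30 min in the dark, room temperature, read at 405 nm. Compounds at 0.01-10 μM in duplicate for IC50; Ki=IC50/(1+[S]/Km).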

T1 sequence (P20231 31-275): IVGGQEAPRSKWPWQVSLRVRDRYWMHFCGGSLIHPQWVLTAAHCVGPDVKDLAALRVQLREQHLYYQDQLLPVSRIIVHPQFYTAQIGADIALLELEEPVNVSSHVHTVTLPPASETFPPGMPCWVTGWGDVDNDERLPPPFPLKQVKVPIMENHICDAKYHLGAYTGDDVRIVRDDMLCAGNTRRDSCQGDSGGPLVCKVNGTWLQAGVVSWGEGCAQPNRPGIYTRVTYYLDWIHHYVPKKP

| SMILES | Ki [nM] |
| --- | --- |
| COCCn1cc(C(=O)N2CCC(c3cc(CN)ccc3F)CC2)c2c(C(=O)O)cccc21 [Example 109, 3-[4-(5-Aminomethyl-2-fluoro-phenyl)-piperidine-1-carbonyl]-1-(2-methoxy-ethyl)-1H-indole-4-carboxylic acid trifluoroacetate] | 142 |
| COCCn1cc(C(=O)N2CCC(c3cc(CN)ccc3F)CC2)c2c(-c3cncc(Cl)c3)cccc21 [Example 65, [4-(5-Aminomethyl-2-fluoro-phenyl)-piperidin-1-yl]-[4-(5-chloro-pyridin-3-yl)-1-(2-methoxy-ethyl)-1H-indol-3-yl]-methanone dihydrochloride] | 11 |
| NCc1ccc(F)c(C2CCN(C(=O)c3cn(CCc4ccccn4)c4ccccc34)CC2)c1 [Example 40, [4-(5-Aminomethyl-2-fluoro-phenyl)-piperidin-1-yl]-[1-(2-pyridin-2-yl-ethyl)-1H-indol-3-yl]-methanone dihydrochloride] | 25 |
| CCN(CC)CCn1cc(C(=O)N2CCC(c3cc(CN)ccc3F)CC2)c2ccccc21 [Example 37, [4-(5-Aminomethyl-2-fluoro-phenyl)-piperidin-1-yl]-[1-(2-diethylamino-ethyl)-1H-indol-3-yl]-methanone dihydrochloride] | 87 |
| COCCn1cc(C(=O)N2CCC(c3cc(CN)ccc3F)CC2)c2c(-c3cccnc3)cccc21 [Example 73, [4-(5-Aminomethyl-2-fluoro-phenyl)-piperidin-1-yl]-[1-(2-methoxy-ethyl)-4-pyridin-3-yl-1H-indol-3-yl]-methanone dihydrochloride] | 7 |
| COCCn1cc(C(=O)N2CCC(c3cc(CN)ccc3F)CC2)c2c(-c3cncnc3)cccc21 [Example 61, [4-(5-Aminomethyl-2-fluoro-phenyl)-piperidin-1-yl]-[1-(2-methoxy-ethyl)-4-pyrimidin-5-yl-1H-indol-3-yl]-methanone dihydrochloride] | 17 |
| COCCn1cc(C(=O)N2CCC(c3cc(CN)ccc3F)CC2)c2c(-c3cncc(C)c3)cccc21 [Example 82, [4-(5-Aminomethyl-2-fluoro-phenyl)-piperidin-1-yl]-[1-(2-methoxy-ethyl)-4-(5-methyl-pyridin-3-yl)-1H-indol-3-yl]-methanone dihydrochloride] | 6 |

Same assay, conditions: Tryptase Ki (nM), Ki calculated from IC50: Ki=IC50/(1+[Substrate]/Km); 0.5 mM substrate, room temperature

| SMILES | Ki [nM] |
| --- | --- |
| COCCn1cc(C(=O)N2CCC(c3cc(CN)ccc3OCC(N)=O)CC2)c2cccc(OC(F)(F)F)c21 [Example 32, 2-(4-Aminomethyl-2-{1-[1-(2-methoxy-ethyl)-7-trifluoromethoxy-1H-indole-3-carbonyl]-piperidin-4-yl}-phenoxy)-acetamide hydrochloride] | 1280 |
| CCCCn1cc(C(=O)N2CCC(c3cc(CN)ccc3F)CC2)c2c(OC)cccc21 [Example 46, [4-(5-Aminomethyl-2-fluoro-phenyl)-piperidin-1-yl]-(1-butyl-4-methoxy-1H-indol-3-yl)-methanone hydrochloride] | 94 |
| Cc1cccc2c(C(=O)N3CCC(c4cc(CN)ccc4F)CC3)cn(CCCc3ccccc3)c12 [Example 4, [4-(5-Aminomethyl-2-fluoro-phenyl)-piperidin-1-yl]-[7-methyl-1-(3-phenyl-propyl)-1H-indol-3-yl]-methanone hydrochloride] | 1300 |
| COCCn1cc(C(=O)N2CCC(c3ccc(F)c(CN)c3)CC2)c2cccc(C)c21 [Example 112, [4-(3-Aminomethyl-4-fluoro-phenyl)-piperidin-1-yl]-[1-(2-methoxy-ethyl)-7-methyl-1H-indol-3-yl]-methanone hydrochloride] | 998 |
| CCCCOc1ccc(CN)cc1C1CCN(C(=O)c2cn(CCOC)c3c(C)cccc23)CC1 [Example 114, [4-(5-Aminomethyl-2-butoxy-phenyl)-piperidin-1-yl]-[1-(2-methoxy-ethyl)-7-methyl-1H-indol-3-yl]-methanone hydrochloride] | 526 |
| COCCn1cc(C(=O)N2CCC(c3cc(CN)ccc3F)CC2)c2cccc(C3CCC3)c21 [Example 19, [4-(5-Aminomethyl-2-fluoro-phenyl)-piperidin-1-yl]-[7-cyclobutyl-1-(2-methoxy-ethyl)-1H-indol-3-yl]-methanone hydrochloride] | 94 |
| CN1CCCCC1CCn1cc(C(=O)N2CCC(c3cc(CN)ccc3F)CC2)c2ccccc21 (centres unmarked) [Example 30, [4-(5-Aminomethyl-2-fluoro-phenyl)-piperidin-1-yl]-{1-[2-(1-methyl-piperidin-2-yl)-ethyl]-1H-indol-3-yl}-methanone dihydrochloride] | 50 |
| COCCn1cc(C(=O)N2CCC(c3cc(CN)ccc3F)CC2)c2cccc(C(F)F)c21 [Example 12, [4-(5-Aminomethyl-2-fluoro-phenyl)-piperidin-1-yl]-[7-difluoromethyl-1-(2-methoxy-ethyl)-1H-indol-3-yl]-methanone hydrochloride] | 26 |
| CCOc1cccc2c1c(C(=O)N1CCC(c3cc(CN)ccc3F)CC1)cn2CCOC [Example 57, [4-(5-Aminomethyl-2-fluoro-phenyl)-piperidin-1-yl]-[4-ethoxy-1-(2-methoxy-ethyl)-1H-indol-3-yl]-methanone hydrochloride] | 54 |
| COCCn1cc(C(=O)N2CCC(c3cc(CN)ccc3F)CC2)c2c(NC(=O)c3ccncc3)cccc21 [Example 101, N-[3-[4-(5-Aminomethyl-2-fluoro-phenyl)-piperidine-1-carbonyl]-1-(2-methoxy-ethyl)-1H-indol-4-yl]-isonicotinamide hydrochloride] | 11 |
| COCCn1cc(C(=O)N2CCC(c3cc(CN)ccc3F)CC2)c2c(-c3cc(Cl)cc(Cl)c3)cccc21 [Example 66, 4-(5-Aminomethyl-2-fluoro-phenyl)-piperidin-1-yl]-[4-(3,5-dichloro-phenyl)-1-(2-methoxy-ethyl)-1H-indol-3-yl]-methanone hydrochloride] | 164 |
| NCc1ccc(F)c(C2CCN(C(=O)c3cn(CCc4ccccc4)c4ccccc34)CC2)c1 [Example 15, [4-(5-Aminomethyl-2-fluoro-phenyl)-piperidin-1-yl]-(1-phenethyl-1H-indol-3-yl)-methanone hydrochloride] | 18 |
| NCc1ccc(F)c(C2CCN(C(=O)c3cn(CCc4ccncc4)c4ccccc34)CC2)c1 [Example 35, [4-(5-Aminomethyl-2-fluoro-phenyl)-piperidin-1-yl]-[1-(2-pyridin-4-yl-ethyl)-1H-indol-3-yl]-methanone dihydrochloride] | 8.6 |
| COCCn1cc(C(=O)N2CCC(c3cc(CN)ccc3F)CC2)c2c(NC(=O)C3CCN(C)CC3)cccc21 [Example 97, 1-Methyl-piperidine-4-carboxylic acid [3-[4-(5-aminomethyl-2-fluoro-phenyl)-piperidine-1-carbonyl]-1-(2-methoxy-ethyl)-1H-indol-4-yl]-amide hydrochloride] | 28 |
| NCc1ccc(F)c(C2CCN(C(=O)c3cn(CCOC(F)(F)F)c4c(F)cccc34)CC2)c1 [Example 86, [4-(5-Aminomethyl-2-fluoro-phenyl)-piperidin-1-yl]-[7-fluoro-1-(2-trifluoromethoxy-ethyl)-1H-indol-3-yl]-methanone hydrochloride] | 80 |

Same assay, conditions: Tryptase Ki, cell prints its own unit uM under a head in nM

| SMILES | Ki [nM] |
| --- | --- |
| COCCn1cc(C(=O)N2CCC(c3cc(CN)ccc3OCC(=O)O)CC2)c2cccc(C)c21 [Example 33, (4-Aminomethyl-2-{1-[1-(2-methoxy-ethyl)-7-methyl-1H-indole-3-carbonyl]-piperidin-4-yl}-phenoxy)-acetic acid hydrochloride] | > 10000 |
